Where two headings read alike, the source gives them in different places.
How the values were obtained:
[1] = test system: methicillin-resistant S. aureus (strain 565, clinical isolate); assay type: cell-based, Staphylococcus aureus; conditions: 35° C., 10% sheep blood in PBS
Procedure: (§1) Antibiotic stock solutions (3 mg/mL and 4 mg/mL) were individually prepared in DI water. The solutions were filter-sterilized. The antibiotics included cefoxitin, cefazolin, and cefuroxime. The antibiotics were diluted 1:1000 into PBS/sheep blood aliquots to achieve final antibiotic concentrations of 3 μg/mL and 4 μg/mL, respectively.
(§2) The bacterial suspensions were subjected to two serial 1:100 dilutions in sterile PBS. The diluted suspensions were then further subjected to a 1:100 dilution into each of the respective PBS/sheep blood mixtures containing an antibiotic. One milliliter of each final suspension; containing sheep blood, microorganisms, and an antibiotic in PBS; was into a PAC plate as described above. The plates were incubated at 35° C. for 48 hours. Each plate was checked for colony growth and hemolytic zone after 24 and 48 hours of incubation.

[2] = test system: methicillin-resistant S. epidermidis (strain 497, clinical isolate); assay: Growth and hemolysis in PAC thin film culture plates with antibiotic in PBS/10% sheep blood diluent; assay type: cell-based, Staphylococcus epidermidis; conditions: 35° C., 10% sheep blood in PBS
Procedure: as §1, §2

CO[C@@]1(NC(=O)Cc2cccs2)C(=O)N2C(C(=O)O)=C(COC(N)=O)CS[C@@H]21 [Cefo, cefoxitin]
+/+: Growth ([1]; antibiotic 3 μg/mL, 24 hours) | Hemolysis ([1]; antibiotic 3 μg/mL, 24 hours) | Growth ([1]; antibiotic 3 μg/mL, 48 hours) | Hemolysis ([1]; antibiotic 3 μg/mL, 48 hours) | Growth ([1]; antibiotic 4 μg/mL, 24 hours) | Hemolysis ([1]; antibiotic 4 μg/mL, 24 hours) | Growth ([1]; antibiotic 4 μg/mL, 48 hours) | Hemolysis ([1]; antibiotic 4 μg/mL, 48 hours) | Growth ([2]; antibiotic 3 μg/mL, 24 hours) | Growth ([2]; antibiotic 3 μg/mL, 48 hours) | Growth ([2]; antibiotic 4 μg/mL, 24 hours) | Growth ([2]; antibiotic 4 μg/mL, 48 hours)

CO/N=C(\C(=O)N[C@@H]1C(=O)N2C(C(=O)O)=C(COC(N)=O)CS[C@H]12)c1ccco1 [Cefu, cefuroxime]
+/+: Growth ([1]; antibiotic 3 μg/mL, 24 hours) | Hemolysis ([1]; antibiotic 3 μg/mL, 24 hours) | Growth ([1]; antibiotic 3 μg/mL, 48 hours) | Hemolysis ([1]; antibiotic 3 μg/mL, 48 hours) | Growth ([1]; antibiotic 4 μg/mL, 24 hours) | Hemolysis ([1]; antibiotic 4 μg/mL, 24 hours) | Growth ([1]; antibiotic 4 μg/mL, 48 hours) | Hemolysis ([1]; antibiotic 4 μg/mL, 48 hours) | Growth ([2]; antibiotic 3 μg/mL, 24 hours) | Growth ([2]; antibiotic 3 μg/mL, 48 hours) | Growth ([2]; antibiotic 4 μg/mL, 24 hours) | Growth ([2]; antibiotic 4 μg/mL, 48 hours)
